Each compound was assayed on KM12 cells (assay: Cell viability assay (CellTiter-Glo) in KM12 cells). Settings: Homo sapiens, 72 h; Table 2; KM12 cell viability, CellTiter-Glo, 3 days; read-out: IC50.
Assay type: cell-based

Question: Which IC50 does the source give for `O=C(CN1CCN(c2ccc(C(=O)Nc3n[nH]c4ccc(Cc5cc(F)cc(F)c5)cc34)c(NC3CCOCC3)c2)CC1)NCCOCCOCCOCCOCCOCCNc1cccc2c1C(=O)N(C1CCC(=O)NC1=O)C2=O` (stereo not shown) [CPD-065, N-(5-(3,5-difluorobenzyl)-1H-indazol-3-yl)-4-(4-(20-((2-(2,6-dioxopiperidin-3-yl)-1,3-dioxoisoindolin-4-yl)amino)-2-oxo-6,9,12,15,18-pentaoxa-3-azaicosyl)piperazin-1-yl)-2-((tetrahydro-2H-pyran-4-yl)amino)benzamide] here?
Answer: Its IC50 is 72.6 nM.

Question: With `O=C1CCC(N2C(=O)c3cccc(NCCCCC(=O)N4CCN(c5ccc(C(=O)Nc6n[nH]c7ccc(Cc8cc(F)cc(F)c8)cc67)c(NC6CCOCC6)c5)CC4)c3C2=O)C(=O)N1` (stereo not shown) [CPD-050, N-(5-(3,5-difluorobenzyl)-1H-indazol-3-yl)-4-(4-(5-((2-(2,6-dioxopiperidin-3-yl)-1,3-dioxoisoindolin-4-yl)amino)pentanoyl)piperazin-1-yl)-2-((tetrahydro-2H-pyran-4-yl)amino)benzamide] as the compound, how does the IC50 read?
Answer: Its IC50 is 28 nM.

Question: For `Cc1ncsc1-c1ccc(CNC(=O)[C@@H]2C[C@@H](O)CN2C(=O)[C@@H](NC(=O)CCCCC(=O)N2CCN(c3cccc(-c4cnc5ccc(N6CCC[C@@H]6c6cccc(F)c6)nn45)n3)CC2)C(C)(C)C)cc1` [CPD-001, (2S,4R)-1-((S)-2-(6-(4-(6-(6-((R)-2-(3-Fluorophenyl)pyrrolidin-1-yl)imidazo[1,2-b]pyridazin-3-yl)pyridin-2-yl)piperazin-1-yl)-6-oxohexanamido)-3,3-dimethylbutanoyl)-4-hydroxy-N-(4-(4-methylthiazol-5-yl)benzyl)pyrrolidine-2-carboxamide], which IC50 is on record?
Answer: Its IC50 is > 1000 nM.

Question: How did the IC50 turn out when `Cc1ncsc1-c1ccc(CNC(=O)[C@@H]2C[C@@H](O)CN2C(=O)[C@@H](NC(=O)COCCOCCOCC(=O)N2CCN(c3ccc(C(=O)Nc4n[nH]c5ccc(Cc6cc(F)cc(F)c6)cc45)c(NC4CCOCC4)c3)CC2)C(C)(C)C)cc1` [CPD-058, (2S,4R)-1-((S)-2-(tert-butyl)-14-(4-(4-((5-(3,5-Difluorobenzyl)-1H-indazol-3-yl)carbamoyl)-3-((tetrahydro-2H-pyran-4-yl)amino)phenyl)piperazin-1-yl)-4,14-dioxo-6,9,12-trioxa-3-azatetradecanoyl)-4-hydroxy-N-(4-(4-methylthiazol-5-yl)benzyl)pyrrolidine-2-carboxamide] was run?
Answer: Its IC50 is > 1000 nM.

Same assay, conditions: Homo sapiens, 72 h; Table 3; KM12 cell viability, CellTiter-Glo, 3 days; read-out: IC50

Question: How did the IC50 turn out when `O=C(CN1CCN(c2ccc(C(=O)Nc3n[nH]c4ccc(Cc5cc(F)cc(F)c5)cc34)c(NC3CCOCC3)c2)CC1)NCCCCCNc1ccc2c(c1)C(=O)N(C1CCC(=O)NC1=O)C2=O` (stereo not shown) [TR-164, N-(5-(3,5-Difluorobenzyl)-1H-indazol-3-yl)-4-(4-(2-((5-((2-(2,6-dioxopiperidin-3-yl)-1,3-dioxoisoindolin-5-yl)amino)pentyl)amino)-2-oxoethyl)piperazin-1-yl)-2-((tetrahydro-2H-pyran-4-yl)amino)benzamide] was run?
Answer: Its IC50 is 7.8 nM.

Question: For `O=C1CCC(N2Cc3cc(NCCN4CCN(c5cccc(-c6cnc7ccc(N8CCC[C@@H]8c8cccc(F)c8)nn67)n5)CC4)ccc3C2=O)C(=O)N1` (stereo partly drawn) [TR-191, 3-(5-((2-(4-(6-(6-((R)-2-(3-fluorophenyl)pyrrolidin-1-yl)imidazo[1,2-b]pyridazin-3-yl)pyridin-2-yl)piperazin-1-yl)ethyl)amino)-1-oxoisoindolin-2-yl)piperidine-2,6-dione], which IC50 is on record?
Answer: The IC50 was 5.4 nM.

Question: How did the IC50 turn out when `O=C(CN1CCN(c2cccc(-c3cnc4ccc(N5CCC[C@@H]5c5cccc(F)c5)nn34)n2)CC1)NCCOCCOCCOCCOCCNc1cccc2c1C(=O)N(C1CCC(=O)NC1=O)C2=O` (stereo partly drawn) [TR-108, N-(14-((2-(2,6-dioxopiperidin-3-yl)-1,3-dioxoisoindolin-4-yl)amino)-3,6,9,12-tetraoxatetradecyl)-2-(4-(6-(6-((R)-2-(3-fluorophenyl)pyrrolidin-1-yl)imidazo[1,2-b]pyridazin-3-yl)pyridin-2-yl)piperazin-1-yl)acetamide] was run?
Answer: The IC50 was 4 nM.

Question: With `O=C1CCC(N2C(=O)c3ccc(CCC(=O)N4CCN(c5cccc(-c6cnc7ccc(N8CCC[C@@H]8c8cccc(F)c8)nn67)n5)CC4)cc3C2=O)C(=O)N1` (stereo partly drawn) [TR-194, 2-(2,6-Dioxopiperidin-3-yl)-5-(3-(4-(6-(6-((R)-2-(3-fluorophenyl)pyrrolidin-1-yl)imidazo[1,2-b]pyridazin-3-yl)pyridin-2-yl)piperazin-1-yl)-3-oxopropyl)isoindoline-1,3-dione] as the compound, how does the IC50 read?
Answer: The IC50 was 7.4 nM.

Question: With `O=C(CN1CCN(c2ccc(C(=O)Nc3n[nH]c4ccc(Cc5cc(F)cc(F)c5)cc34)c(NC3CCOCC3)c2)CC1)NCCOCCOCCNc1cccc2c1C(=O)N(C1CCC(=O)NC1=O)C2=O` (stereo not shown) [TR-153, N-(5-(3,5-Difluorobenzyl)-1H-indazol-3-yl)-4-(4-(2-((2-(2-(2-((2-(2,6-dioxopiperidin-3-yl)-1,3-dioxoisoindolin-4-yl)amino)ethoxy)ethoxy)ethyl)amino)-2-oxoethyl)piperazin-1-yl)-2-((tetrahydro-2H-pyran-4-yl)amino)benzamide] as the compound, how does the IC50 read?
Answer: Its IC50 is 6.3 nM.

Question: How did the IC50 turn out when `O=C(CN1CCN(c2ccc(C(=O)Nc3n[nH]c4ccc(Cc5cc(F)cc(F)c5)cc34)c(NC3CCOCC3)c2)CC1)NCCCNc1ccc2c(c1)C(=O)N(C1CCC(=O)NC1=O)C2=O` (stereo not shown) [TR-167, N-(5-(3,5-Difluorobenzyl)-1H-indazol-3-yl)-4-(4-(2-((3-((2-(2,6-dioxopiperidin-3-yl)-1,3-dioxoisoindolin-5-yl)amino)propyl)amino)-2-oxoethyl)piperazin-1-yl)-2-((tetrahydro-2H-pyran-4-yl)amino)benzamide] was run?
Answer: Its IC50 is 3.3 nM.

Question: How did the IC50 turn out when `O=C1CCC(N2C(=O)c3ccc(N4CCN(c5cccc(-c6cnc7ccc(N8CCC[C@@H]8c8cccc(F)c8)nn67)n5)CC4)cc3C2=O)C(=O)N1` (stereo partly drawn) [TR-170, 2-(2,6-Dioxopiperidin-3-yl)-5-(4-(6-(6-((R)-2-(3-fluorophenyl)pyrrolidin-1-yl)imidazo[1,2-b]pyridazin-3-yl)pyridin-2-yl)piperazin-1-yl)isoindoline-1,3-dione] was run?
Answer: The IC50 was 15.1 nM.

Question: `O=C(CN1CCN(c2cccc(-c3cnc4ccc(N5CCC[C@@H]5c5cccc(F)c5)nn34)n2)CC1)NCCCCNc1cccc2c1C(=O)N(C1CCC(=O)NC1=O)C2=O` (stereo partly drawn) [TR-107, N-(4-((2-(2,6-dioxopiperidin-3-yl)-1,3-dioxoisoindolin-4-yl)amino)butyl)-2-(4-(6-(6-((R)-2-(3-fluorophenyl)pyrrolidin-1-yl)imidazo[1,2-b]pyridazin-3-yl)pyridin-2-yl)piperazin-1-yl)acetamide] was tested. Which IC50 did it give?
Answer: Its IC50 is 8.4 nM.

Question: With `O=C(CN1CCN(c2cccc(-c3cnc4ccc(N5CCC[C@@H]5c5cccc(F)c5)nn34)n2)CC1)NCCOCCOCCOCCOCCOCCNc1ccc2c(c1)C(=O)N(C1CCC(=O)NC1=O)C2=O` (stereo partly drawn) [TR-132, N-(17-((2-(2,6-dioxopiperidin-3-yl)-1,3-dioxoisoindolin-5-yl)amino)-3,6,9,12,15-pentaoxaheptadecyl)-2-(4-(6-(6-((R)-2-(3-fluorophenyl)pyrrolidin-1-yl)imidazo[1,2-b]pyridazin-3-yl)pyridin-2-yl)piperazin-1-yl)acetamide] as the compound, how does the IC50 read?
Answer: The IC50 was 4.4 nM.

Same assay, conditions: Homo sapiens, 72 h; Table 4; KM12 cell viability, CellTiter-Glo, 3 days; read-out: IC50

Question: Which IC50 does the source give for `O=C1CCC(N2C(=O)c3ccc(NC(=O)C4CCN(c5cccc(-c6cnc7ccc(N8CCC[C@@H]8c8cccc(F)c8)nn67)n5)CC4)cc3C2=O)C(=O)N1` (stereo partly drawn) [TR-215, N-(2-(2,6-Dioxopiperidin-3-yl)-1,3-dioxoisoindolin-5-yl)-1-(6-(6-((R)-2-(3-fluorophenyl)pyrrolidin-1-yl)imidazo[1,2-b]pyridazin-3-yl)pyridin-2-yl)piperidine-4-carboxamide] here?
Answer: Its IC50 is > 500 nM.

Question: Which IC50 does the source give for `O=C1CCC(N2C[C@H](c3cccc(CN4CCN(c5cccc(-c6cnc7ccc(N8CCC[C@@H]8c8cccc(F)c8)nn67)n5)CC4)c3)OC2=O)C(=O)N1` (stereo partly drawn) [TR-235, 3-((S)-5-(3-((4-(6-(6-((R)-2-(3-Fluorophenyl)pyrrolidin-1-yl)imidazo[1,2-b]pyridazin-3-yl)pyridin-2-yl)piperazin-1-yl)methyl)phenyl)-2-oxooxazolidin-3-yl)piperidine-2,6-dione] here?
Answer: Its IC50 is 3.3 nM.

Question: With `Cn1c(=O)n(C2CCC(=O)NC2=O)c2cccc(CCCN3CCN(c4cccc(-c5cnc6ccc(N7CCC[C@@H]7c7cccc(F)c7)nn56)n4)CC3)c21` (stereo partly drawn) [TR-240, 3-(4-(3-(4-(6-(6-((R)-2-(3-fluorophenyl)pyrrolidin-1-yl)imidazo[1,2-b]pyridazin-3-yl)pyridin-2-yl)piperazin-1-yl)propyl)-3-methyl-2-oxo-2,3-dihydro-1H-benzo[d]imidazol-1-yl)piperidine-2,6-dione] as the compound, how does the IC50 read?
Answer: Its IC50 is 16 nM.

Question: With `O=C1CCC(N2Cc3cc(C#CC4CCN(c5cccc(-c6cnc7ccc(N8CCC[C@@H]8c8cccc(F)c8)nn67)n5)CC4)ccc3C2=O)C(=O)N1` (stereo partly drawn) [TR-208, 3-(5-((1-(6-(6-((R)-2-(3-fluorophenyl)pyrrolidin-1-yl)imidazo [1,2-b]pyridazin-3-yl)pyridin-2-yl)piperidin-4-yl)ethynyl)-1-oxoisoindolin-2-yl)piperidine-2,6-dione] as the compound, how does the IC50 read?
Answer: Its IC50 is 7 nM.

Question: For `Cn1c(=O)n(C2CCC(=O)NC2=O)c2cccc(C#CCCN3CCN(c4cccc(-c5cnc6ccc(N7CCC[C@@H]7c7cccc(F)c7)nn56)n4)CC3)c21` (stereo partly drawn) [TR-239, 3-(4-(4-(4-(6-(6-((R)-2-(3-fluorophenyl)pyrrolidin-1-yl)imidazo[1,2-b]pyridazin-3-yl)pyridin-2-yl)piperazin-1-yl)but-1-yn-1-yl)-3-methyl-2-oxo-2,3-dihydro-1H-benzo[d]imidazol-1-yl)piperidine-2,6-dione], which IC50 is on record?
Answer: Its IC50 is 46 nM.

Question: Which IC50 does the source give for `Cn1c(=O)n(C2CCC(=O)NC2=O)c2cccc(OCCN3CCN(c4cccc(-c5cnc6ccc(N7CCC[C@@H]7c7cccc(F)c7)nn56)n4)CC3)c21` (stereo partly drawn) [TR-244, 3-(4-(2-(4-(6-(6-((R)-2-(3-fluorophenyl)pyrrolidin-1-yl)imidazo[1,2-b]pyridazin-3-yl)pyridin-2-yl)piperazin-1-yl)ethoxy)-3-methyl-2-oxo-2,3-dihydro-1H-benzo[d]imidazol-1-yl)piperidine-2,6-dione] here?
Answer: Its IC50 is 298 nM.

Reference: US12065442B2, “Tropomyosin receptor kinase (TRK) degradation compounds and methods of use” (Cullgen (Shanghai), Inc., priority 2018, dated 2024)
